Results taken from US7625841B2, “Substituted thiene-3-ylsulphonylamino(thio)carbonyltriazolin(ethi)ones” (Bayer CropScience AG, priority 2001, dated 2009).
Structures can show the parent of a compound that is named as a salt.

What was measured:
Bromus [1] = experiment: Post-emergence test/greenhouse; assay type: in vivo; conditions: greenhouse, application rate 15 gai/ha, rated after three weeks, 0%=no effect, 100%=total destruction
Outline: (§1)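 Post-emergence greenhouse spray. Formulation: 1 pt cpd, 5 pts acetone, 1 pt alkylaryl polyglycol ether emulsifier, water dilution; spray volume 1000 l/ha; plants 5-15 cm. Rating at 3 wk, % damage vs untreated (0-100%).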

Alopecurus [2] = experiment: Post-emergence test/greenhouse; assay type: in vivo; conditions: greenhouse, application rate 15 gai/ha, rated after three weeks, 0%=no effect, 100%=total destruction
Outline: as §1

Lolium [3] = experiment: Post-emergence test/greenhouse; assay type: in vivo; conditions: greenhouse, application rate 15 gai/ha, rated after three weeks, 0%=no effect, 100%=total destruction
Outline: as §1

rape = experiment: Post-emergence test/greenhouse; assay type: in vivo; conditions: greenhouse, application rate 15 gai/ha, rated after three weeks, 0%=no effect, 100%=total destruction
Outline: as §1

Setaria [4] = experiment: Post-emergence test/greenhouse; assay type: in vivo; conditions: greenhouse, application rate 15 gai/ha, rated after three weeks, 0%=no effect, 100%=total destruction
Outline: as §1

Chenopodium [5] = experiment: Post-emergence test/greenhouse; assay type: in vivo; conditions: greenhouse, application rate 15 gai/ha, rated after three weeks, 0%=no effect, 100%=total destruction
Outline: as §1

Viola = experiment: Post-emergence test/greenhouse; assay type: in vivo; conditions: greenhouse, application rate 15 gai/ha, rated after three weeks, 0%=no effect, 100%=total destruction
Outline: as §1

maize [6] = experiment: Post-emergence test/greenhouse; assay type: in vivo; conditions: greenhouse, application rate 15 gai/ha, rated after three weeks, 0%=no effect, 100%=total destruction
Outline: as §1

Polygonum [7] = experiment: Post-emergence test/greenhouse; assay type: in vivo; conditions: greenhouse, application rate 15 gai/ha, rated after three weeks, 0%=no effect, 100%=total destruction
Outline: as §1

Avena fatua [8] = experiment: Post-emergence test/greenhouse; assay type: in vivo; conditions: greenhouse, application rate 15 gai/ha, rated after three weeks, 0%=no effect, 100%=total destruction
Outline: as §1

Xanthium [9] = experiment: Post-emergence test/greenhouse; assay type: in vivo; conditions: greenhouse, application rate 15 gai/ha, rated after three weeks, 0%=no effect, 100%=total destruction
Outline: as §1

Datura = experiment: Post-emergence test/greenhouse; assay type: in vivo; conditions: greenhouse, application rate 15 gai/ha, rated after three weeks, 0%=no effect, 100%=total destruction
Outline: as §1

wheat [10] = experiment: Post-emergence test/greenhouse; assay type: in vivo; conditions: greenhouse, application rate 15 gai/ha, rated after three weeks, 0%=no effect, 100%=total destruction
Outline: as §1

Echinochloa = experiment: Post-emergence test/greenhouse; assay type: in vivo; conditions: greenhouse, application rate 15 gai/ha, rated after three weeks, 0%=no effect, 100%=total destruction
Outline: as §1

Digitaria [11] = experiment: Post-emergence test/greenhouse; assay type: in vivo; conditions: greenhouse, application rate 15 gai/ha, rated after three weeks, 0%=no effect, 100%=total destruction
Outline: as §1

Solanum = experiment: Pre-emergence test/greenhouse; assay type: in vivo; conditions: greenhouse, application rate 15 gai/ha, rated after three weeks, 0%=no effect, 100%=total destruction
Outline: (§2)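 Read-out is percent damage relative to untreated controls three weeks after treatment, where 0% means no effect and 100% total destruction. Treatment was a spray onto soil one day after seeds were sown, applied in 1000 litres of water per hectare.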

Bromus [12] = experiment: Pre-emergence test/greenhouse; assay type: in vivo; conditions: greenhouse, application rate 15 gai/ha, rated after three weeks, 0%=no effect, 100%=total destruction
Outline: as §2

Alopecurus [13] = experiment: Pre-emergence test/greenhouse; assay type: in vivo; conditions: greenhouse, application rate 15 gai/ha, rated after three weeks, 0%=no effect, 100%=total destruction
Outline: as §2

Lolium [14] = experiment: Pre-emergence test/greenhouse; assay type: in vivo; conditions: greenhouse, application rate 15 gai/ha, rated after three weeks, 0%=no effect, 100%=total destruction; for pest or weed control at 15 g/ha: Lolium, 504 h, read-out: degree of damage to the plants, Lolium
Outline: as §2

soybeans = experiment: Pre-emergence test/greenhouse; assay type: in vivo; conditions: greenhouse, application rate 15 gai/ha, rated after three weeks, 0%=no effect, 100%=total destruction
Outline: as §2

Setaria [15] = experiment: Pre-emergence test/greenhouse; assay type: in vivo; conditions: greenhouse, application rate 15 gai/ha, rated after three weeks, 0%=no effect, 100%=total destruction
Outline: as §2

Chenopodium [16] = experiment: Pre-emergence test/greenhouse; assay type: in vivo; conditions: greenhouse, application rate 15 gai/ha, rated after three weeks, 0%=no effect, 100%=total destruction
Outline: as §2

Matricaria = experiment: Pre-emergence test/greenhouse; assay type: in vivo; conditions: Matricaria, 504 h, greenhouse, application rate 15 gai/ha, rated after three weeks, 0%=no effect, 100%=total destruction, read-out: degree of damage to the plants, Matricaria
Outline: as §2

maize [17] = experiment: Pre-emergence test/greenhouse; assay type: in vivo; conditions: Zea mays, 504 h, greenhouse, application rate 15 gai/ha, rated after three weeks, 0%=no effect, 100%=total destruction, read-out: degree of damage to the plants, maize
Outline: as §2

Polygonum [18] = experiment: Pre-emergence test/greenhouse; assay type: in vivo; conditions: greenhouse, application rate 15 gai/ha, rated after three weeks, 0%=no effect, 100%=total destruction
Outline: as §2

Avena fatua [19] = experiment: Pre-emergence test/greenhouse; assay type: in vivo; conditions: greenhouse, application rate 15 gai/ha, rated after three weeks, 0%=no effect, 100%=total destruction
Outline: as §2

Xanthium [20] = experiment: Pre-emergence test/greenhouse; assay type: in vivo; conditions: Xanthium, 504 h, greenhouse, application rate 15 gai/ha, rated after three weeks, 0%=no effect, 100%=total destruction, read-out: degree of damage to the plants, Xanthium
Outline: as §2

wheat [21] = experiment: Pre-emergence test/greenhouse; assay type: in vivo; conditions: Triticum aestivum, 504 h, greenhouse, application rate 15 gai/ha, rated after three weeks, 0%=no effect, 100%=total destruction, read-out: degree of damage to the plants, wheat
Outline: as §2

Galium = experiment: Pre-emergence test/greenhouse; assay type: in vivo; conditions: greenhouse, application rate 15 gai/ha, rated after three weeks, 0%=no effect, 100%=total destruction
Outline: as §2

Digitaria [22] = experiment: Pre-emergence test/greenhouse; assay type: in vivo; conditions: greenhouse, application rate 15 gai/ha, rated after three weeks, 0%=no effect, 100%=total destruction
Outline: as §2

Stellaria = experiment: Pre-emergence test/greenhouse; assay type: in vivo; conditions: greenhouse, application rate 15 gai/ha, rated after three weeks, 0%=no effect, 100%=total destruction; for pest or weed control at 15 g/ha: Stellaria, 504 h, read-out: degree of damage to the plants, Stellaria
Outline: as §2

Amaranthus = experiment: Pre-emergence test/greenhouse; assay type: in vivo; conditions: greenhouse, application rate 15 gai/ha, rated after three weeks, 0%=no effect, 100%=total destruction
Outline: as §2

weeds [23] = experiment: Post-emergence test, summary for weeds; assay type: in vivo
Outline: as §1

weeds [24] = experiment: Pre-emergence test, summary for weeds; assay type: in vivo
Outline: as §2

[25] = system: crop plants, such as, for example, maize, soyabean and wheat; experiment: Pre-emergence test, summary for crop plants; assay type: in vivo
Outline: as §2

[26] = system: crop plants such as, for example, maize, oilseed rape and wheat; experiment: Post-emergence test, summary for crop plants; assay type: in vivo
Outline: as §1

Compound	degree of damage to the plants, Alopecurus (Alopecurus [2]) [%]	degree of damage to the plants, Lolium (Lolium [3]) [%]	degree of damage to the plants, maize (maize [6]) [%]	degree of damage to the plants, Polygonum (Polygonum [7]) [%]	degree of damage to the plants, Xanthium (Xanthium [9]) [%]	degree of damage to the plants, Datura (Datura) [%]	degree of damage to the plants, wheat (wheat [10]) [%]	degree of damage to the plants, Echinochloa (Echinochloa) [%]	degree of damage to the plants, Solanum (Solanum) [%]	degree of damage to the plants, Bromus (Bromus [12]) [%]	pest or weed control at 15 g/ha (Lolium [14]) [%]	degree of damage to the plants, Setaria (Setaria [15]) [%]	pest or weed control at 15 g/ha (Matricaria) [%]	plant injury at 15 g/ha (maize [17]) [%]	degree of damage to the plants, Avena fatua (Avena fatua [19]) [%]	pest or weed control at 15 g/ha (Xanthium [20]) [%]	plant injury at 15 g/ha (wheat [21]) [%]	degree of damage to the plants, Galium (Galium) [%]	pest or weed control at 15 g/ha (Stellaria) [%]	degree of damage to the plants, Amaranthus (Amaranthus) [%]	also measured
CCOC(=O)c1csc(C)c1S(=O)(=O)NC(=O)n1nc(OC)n(C)c1=O (as salt: sodium) [Example 1, ethyl 4-[[[(3-methoxy-4-methyl-5-oxo-1H-1,2,4-triazol-1-yl)carbonyl]amino]sulfonyl]-5-methyl-3-thiophenecarboxylate]	–	–	–	–	–	–	–	–	–	–	–	–	–	–	–	–	–	–	–	–	melting point: 220 °C
CCCOc1nn(C(=O)NS(=O)(=O)c2c(C(=O)OC)csc2C)c(=O)n1C [(A), methyl 4-[[[(4,5-dihydro-4-methyl-5-oxo-3-n-propoxy-1H-1,2,4-triazol-1-yl)carbonyl]-amino]sulfonyl]-5-methyl-3-thiophenecarboxylate, reference compound]	70	30	30	50	70	50	0	60	80	60	0	0	50	0	0	0	0	10	80	–	degree of damage to the plants, Bromus (Bromus [1]): 50%; degree of damage to the plants, rape (rape): 95%; degree of damage to the plants, Setaria (Setaria [4]): 30%; degree of damage to the plants, Chenopodium (Chenopodium [5]): 80%; degree of damage to the plants, Viola (Viola): 30%; degree of damage to the plants, Avena fatua (Avena fatua [8]): 30%; degree of damage to the plants, Digitaria (Digitaria [11]): 10%; degree of damage to the plants, Alopecurus (Alopecurus [13]): 60%; degree of damage to the plants, soybeans (soybeans): 0%; degree of damage to the plants, Chenopodium (Chenopodium [16]): 50%; degree of damage to the plants, Polygonum (Polygonum [18]): 0%; degree of damage to the plants, Digitaria (Digitaria [22]): 0%
CCCOc1nn(C(=O)NS(=O)(=O)c2c(C(=O)OC)csc2C)c(=O)n1C1CC1 [(B), methyl 4-[[[(4-cyclopropyl-4,5-dihydro-5-oxo-3-n-propoxy-1H-1,2,4-triazol-1-yl)-carbonyl]amino]sulfonyl]-5-methyl-3-thiophenecarboxylate, reference compound]	0	60	90	70	50	80	30	–	80	40	20	40	40	0	10	0	0	20	60	80	degree of damage to the plants, Bromus (Bromus [1]): 50%; degree of damage to the plants, Setaria (Setaria [4]): 60%; degree of damage to the plants, Avena fatua (Avena fatua [8]): 50%; degree of damage to the plants, Digitaria (Digitaria [11]): 20%; degree of damage to the plants, Alopecurus (Alopecurus [13]): 20%; degree of damage to the plants, soybeans (soybeans): 0%; degree of damage to the plants, Chenopodium (Chenopodium [16]): 40%; degree of damage to the plants, Polygonum (Polygonum [18]): 50%; degree of damage to the plants, Digitaria (Digitaria [22]): 0%
CCOC(=O)c1csc(C)c1S(=O)(=O)NC(=O)n1nc(OC)n(C)c1=O [Example 1, ethyl 4-[[[(3-methoxy-4-methyl-5-oxo-1H-1,2,4-triazol-1-yl)carbonyl]amino]sulfonyl]-5-methyl-3-thiophenecarboxylate]	–	90	0	95	95	95	0	90	100	95	90	–	100	0	–	95	0	–	100	100	degree of damage to the plants, Viola (Viola): 95%; activity against weeds compared with the known compounds (A) and (B) (weeds [23]): considerably stronger activity against weeds; melting point: 176 °C; activity against weeds compared with the known compounds (A) to (G) (weeds [24]): considerably stronger activity against weeds; tolerance by crop plants [25]: tolerated well by crop plants; compatibility with crop plants compared with the known compounds (A) and (B) [26]: substantially better compatibility with crop plants
CCCc1nn(C(=O)NS(=O)(=O)c2c(C(=O)OC)csc2C)c(=O)n1OC [Example 42]	90	90	–	–	–	–	–	90	–	95	–	95	–	–	90	–	–	100	–	100	degree of damage to the plants, rape (rape): 0%; degree of damage to the plants, Chenopodium (Chenopodium [5]): 95%; activity against weeds compared with the known compounds (A) and (B) (weeds [23]): considerably stronger activity against weeds; degree of damage to the plants, Lolium (Lolium [14]): 95%; degree of damage to the plants, Stellaria (Stellaria): 100%; activity against weeds compared with the known compounds (A) to (G) (weeds [24]): considerably stronger activity against weeds; tolerance by crop plants [25]: tolerated well by crop plants; compatibility with crop plants compared with the known compounds (A) and (B) [26]: substantially better compatibility with crop plants
